Key:
[1] = tested on: NiV-mediated fusion (HeLa cells expressing NiV F and G, U373 target cells)
[2] = tested on: HeV-mediated fusion (HeLa cells expressing HeV F and G, U373 target cells)
live NiV = conditions: 56 μM

With `CC[C@H](C)[C@H](NC(=O)[C@H](CCCCN)NC(=O)[C@H](CCC(N)=O)NC(=O)[C@H](C)NC(=O)[C@H](CCC(=O)O)NC(=O)[C@H](CCCCN)NC(=O)[C@@H](NC(=O)[C@H](Cc1ccc(O)cc1)NC(=O)[C@H](CC(=O)O)NC(=O)[C@H](CCCCN)NC(=O)[C@H](CO)NC(=O)[C@H](CCC(N)=O)NC(=O)[C@H](CCC(N)=O)NC(=O)[C@H](CC(C)C)NC(=O)[C@H](CO)NC(=O)[C@H](CCC(N)=O)NC(=O)[C@H](CC(N)=O)NC(=O)[C@H](CCSC)NC(=O)[C@H](CO)NC(=O)[C@H](CO)NC(=O)[C@@H](NC(=O)[C@H](CCC(N)=O)NC(=O)[C@H](CO)NC(=O)[C@H](CO)NC(=O)[C@@H](NC(=O)[C@H](CC(=O)O)NC(=O)[C@@H](NC(=O)[C@H](CCCCN)NC(=O)[C@H](CC(=O)O)NC(=O)[C@@H](NC(=O)[C@H](Cc1ccc(O)cc1)NC(=O)[C@@H](NC(=O)[C@@H]1CCCN1C(=O)[C@@H]1CCCN1)C(C)C)[C@@H](C)O)C(C)C)[C@@H](C)CC)[C@@H](C)CC)[C@@H](C)CC)C(=O)N[C@@H](CC(C)C)C(=O)N[C@@H](CC(=O)O)C(=O)N[C@H](C(=O)N[C@H](C(=O)N[C@@H](CC(N)=O)C(=O)N1CCC[C@H]1C(=O)N[C@@H](CO)C(=O)N[C@@H](CC(C)C)C(=O)O)C(C)C)[C@@H](C)O` [HeV FC2] the IC50 [1] was 5.2 to 5.8 nM, the “Inhibition of NiV-mediated fusion (in words)” value [1] was “completely inhibitory in the nM range” and the IC50 [2] was 5.2 to 5.8 nM. The “Inhibition of HeV-mediated fusion (in words)” value [2] was “completely inhibitory in the nM range”.

In the case of “KPYTQSDVSMISLQSQKSINSLPSQIKDYVQKTVILAEDNP [ScHeV FC2, reference compound]”, the “Inhibition of NiV-mediated fusion (in words)” value [1] is reported as “no inhibitory effect” and the “Inhibition of HeV-mediated fusion (in words)” value [2] is reported as “no inhibitory effect”.

For `CC[C@H](C)[C@H](NC(=O)[C@H](CCCCN)NC(=O)[C@H](CCC(N)=O)NC(=O)[C@H](C)NC(=O)[C@H](CCC(=O)O)NC(=O)[C@H](CCCCN)NC(=O)[C@@H](NC(=O)[C@H](Cc1ccc(O)cc1)NC(=O)[C@H](CC(=O)O)NC(=O)[C@H](CCCCN)NC(=O)[C@H](CO)NC(=O)[C@H](CCC(N)=O)NC(=O)[C@H](CCC(N)=O)NC(=O)[C@H](CC(C)C)NC(=O)[C@H](CO)NC(=O)[C@H](CCC(N)=O)NC(=O)[C@H](CC(N)=O)NC(=O)[C@H](CCSC)NC(=O)[C@H](CO)NC(=O)[C@H](CO)NC(=O)[C@@H](NC(=O)[C@H](CCC(N)=O)NC(=O)[C@H](CO)NC(=O)[C@H](CO)NC(=O)[C@@H](NC(=O)[C@H](CC(=O)O)NC(=O)[C@@H](NC(=O)[C@H](CCCCN)NC(=O)[C@H](CC(=O)O)NC(=O)[C@@H](NC(=O)[C@H](Cc1ccc(O)cc1)NC(=O)[C@@H](NC(=O)[C@@H]1CCCN1C(=O)[C@@H]1CCCN1)C(C)C)[C@@H](C)O)C(C)C)[C@@H](C)CC)[C@@H](C)CC)[C@@H](C)CC)C(=O)N[C@@H](CC(C)C)C(=O)N[C@@H](CC(=O)O)C(=O)N[C@H](C(=O)N[C@H](C(=O)N[C@@H](CC(N)=O)C(=O)N1CCC[C@H]1C(=O)N[C@@H](CO)C(=O)N[C@@H](CC(C)C)C(=O)O)C(C)C)[C@@H](C)O` [FC1], the “Inhibition of NiV-mediated fusion (in words)” value [1] was “capable of inhibiting recombinant NiV-mediated fusion at slightly lower efficiencies”, the “% Inhibition of focus formation” value (live NiV) was 91.8% and the “Inhibition of HeV-mediated fusion (in words)” value [2] was “completely inhibit HeV-mediated fusion in the nM range”.

Reference: patent publication US8114410B2, “Composition and methods for the inhibition of membrane fusion by paramyxoviruses” (priority 2001, dated 2012)
